In paper PMC11642016 (International Journal of Molecular Sciences, 2024):
Several values for one entry are separate records, joined by “and”; a condition that tells them apart may be missing. Equal entries are not always repeated. Where two headings read alike, the source gives them in different places.

Assays:
[1] = test system: Fadu cells; test: CellTiter-Glo luminescent cell viability assay, Fadu; details: for Fadu Cell viability (% of controll) / Cell Viability (% of Control) 2.8 µM / Cell Viability (% of Control) 8.3 µM / Cell Viability (% of Control) 25 µM: 72 h; for Fadu Cell viability (% of controll): dose–response, individual replicates; for Cell Viability (% of Control) 2.8 µM / Cell Viability (% of Control) 8.3 µM / Cell Viability (% of Control) 25 µM: Fadu, mean ± SD, n = 2
[2] = test system: PANC-1, Fadu, A2058 and EBC-1 cell lines; design: method as in PMID 35455465; details: 10 µM; cited from earlier work
[3] = test system: PANC-1 cells; test: CellTiter-Glo luminescent cell viability assay, PANC-1; details: for PANC-1 Cell viability (% of controll) / Cell Viability (% of Control) 2.8 µM / Cell Viability (% of Control) 8.3 µM / Cell Viability (% of Control) 25 µM: 72 h; for PANC-1 Cell viability (% of controll): dose–response, individual replicates; for Cell Viability (% of Control) 2.8 µM / Cell Viability (% of Control) 8.3 µM / Cell Viability (% of Control) 25 µM: PANC-1, mean ± SD, n = 2
[4] = test system: non-tumorous primary fibroblast cells; test: CellTiter-Glo luminescent cell viability assay, primary fibroblasts; details: for Primer fibroblast Cell viability (% of controll): 72 h, dose–response, individual replicates
[5] = test system: PANC-1 and A2058 cells; design: method as in PMID 35455465; details: 24 h exposure time; cited from earlier work

Structure (SMILES): NCC#Cc1ccc(CN2C(=O)C3=C(CCN(Cc4ccc(-n5cc(-[c-]6cccc6)nn5)cc4)C3)N3CCN=C23)cc1.[Fe+2].c1cc[cH-]c1 [I/A, reference compound]
- Fadu Cell viability (% of controll) ([1]; 0.7 μM): 111 % of controll and 115 % of controll and 108 % of controll
- Fadu Cell viability (% of controll) ([1]; 1 μM): 110 % of controll and 112 % of controll and 109 % of controll
- Fadu Cell viability (% of controll) ([1]; 1.5 μM): 107 % of controll and 108 % of controll and 109 % of controll
- Fadu Cell viability (% of controll) ([1]; 2.3 μM): 109 % of controll (2×) and 104 % of controll
- Fadu Cell viability (% of controll) ([1]; 3.4 μM): 104 % of controll and 109 % of controll and 110 % of controll
- Fadu Cell viability (% of controll) ([1]; 5.1 μM): 105 % of controll and 106 % of controll and 102 % of controll
- Fadu Cell viability (% of controll) ([1]; 7.7 μM): 99 % of controll and 86 % of controll and 82 % of controll
- Fadu Cell viability (% of controll) ([1]; 17.3 μM): 5 % of controll and 0 % of controll and 1 % of controll
- Fadu Cell viability (% of controll) ([1]; 26 μM): 0 % of controll
- Cell Viability (% of Control) 2.8 µM ([1]; first-set screening): 105 ± 9 % of Control
- Cell Viability (% of Control) 2.8 µM ([1]; second-set screening): 105 ± 9 % of Control
- Cell Viability (% of Control) 8.3 µM ([1]; first-set screening): 66 ± 24 % of Control
- Cell Viability (% of Control) 8.3 µM ([1]; second-set screening): 66 ± 24 % of Control
- Cell Viability (% of Control) 25 µM ([1]; first-set screening): 0 ± 0 % of Control
- Cell Viability (% of Control) 25 µM ([1]; second-set screening): 0 ± 0 % of Control
- Selectivity Index (SI) Fibroblast/Fadu ([1]; ratio of mean best-fit IC50 for primary fibroblasts and best-fit IC50 for Fadu): 1.5
- IC50 ([1]; read-out: Fadu IC50 values, Mean, mean of independently fitted replicate IC50 values (Supplement S.6)): 10 µM
- IC50 ([1]; read-out: Fadu IC50 values, individual replicates n1-n3, IC50 independently determined for each replicate measurement (Supplement S.6)): 11.2 µM and 9.27 µM and 9.61 µM
- IC50 ([1]; read-out: IC50 Value ± SEM Fadu, 72 h treatment, best-fit values, n = 3): 10 ± 0.23 µM
- viable cells after treatment in colony formation assays [2]: no viable cells could be observed
- PANC-1 Cell viability (% of controll) ([3]; 0.7 μM): 106 % of controll and 102 % of controll and 107 % of controll
- PANC-1 Cell viability (% of controll) ([3]; 1 μM): 109 % of controll and 116 % of controll and 115 % of controll
- PANC-1 Cell viability (% of controll) ([3]; 1.5 μM): 110 % of controll and 105 % of controll and 115 % of controll
- PANC-1 Cell viability (% of controll) ([3]; 2.3 μM): 109 % of controll and 107 % of controll and 111 % of controll
- PANC-1 Cell viability (% of controll) ([3]; 3.4 μM): 108 % of controll and 109 % of controll and 112 % of controll
- PANC-1 Cell viability (% of controll) ([3]; 5.1 μM): 99 % of controll and 97 % of controll and 119 % of controll
- PANC-1 Cell viability (% of controll) ([3]; 7.7 μM): 93 % of controll and 79 % of controll and 109 % of controll
- PANC-1 Cell viability (% of controll) ([3]; 17.3 μM): 0 % of controll and 2 % of controll and 1 % of controll
- PANC-1 Cell viability (% of controll) ([3]; 26 μM): 0 % of controll
- Cell Viability (% of Control) 2.8 µM ([3]; first-set screening): 108 ± 4 % of Control
- Cell Viability (% of Control) 2.8 µM ([3]; second-set screening): 108 ± 4 % of Control
- Cell Viability (% of Control) 8.3 µM ([3]; first-set screening): 39 ± 7 % of Control
- Cell Viability (% of Control) 8.3 µM ([3]; second-set screening): 39 ± 7 % of Control
- Cell Viability (% of Control) 25 µM ([3]; first-set screening): 0 ± 0 % of Control
- Cell Viability (% of Control) 25 µM ([3]; second-set screening): 0 ± 0 % of Control
- Selectivity Index (SI) Fibroblast/PANC-1 ([3]; ratio of mean best-fit IC50 for primary fibroblasts and best-fit IC50 for PANC-1): 1.4
- IC50 ([3]; read-out: IC50 Value ± SEM PANC-1, 72 h treatment, best-fit values, n = 3): 10.7 ± 0.31 µM
- IC50 ([3]; read-out: PANC-1 IC50 values, Mean, mean of independently fitted replicate IC50 values (Supplement S.6)): 10.6 µM
- IC50 ([3]; read-out: PANC-1 IC50 values, individual replicates n1-n3, IC50 independently determined for each replicate measurement (Supplement S.6)): 11.5 µM and 10.3 µM and 10.1 µM
- Primer fibroblast Cell viability (% of controll) ([4]; 0.7 μM): 96 % of controll and 98 % of controll and 99 % of controll
- Primer fibroblast Cell viability (% of controll) ([4]; 1 μM): 100 % of controll and 103 % of controll and 99 % of controll
- Primer fibroblast Cell viability (% of controll) ([4]; 1.5 μM): 102 % of controll and 105 % of controll and 104 % of controll
- Primer fibroblast Cell viability (% of controll) ([4]; 2.3 μM): 102 % of controll (2×) and 104 % of controll
- Primer fibroblast Cell viability (% of controll) ([4]; 3.4 μM): 104 % of controll (2×) and 107 % of controll
- Primer fibroblast Cell viability (% of controll) ([4]; 5.1 μM): 107 % of controll and 109 % of controll and 98 % of controll
- Primer fibroblast Cell viability (% of controll) ([4]; 7.7 μM): 115 % of controll and 118 % of controll and 109 % of controll
- Primer fibroblast Cell viability (% of controll) ([4]; 17.3 μM): 8 % of controll and 42 % of controll and 24 % of controll
- Primer fibroblast Cell viability (% of controll) ([4]; 26 μM): 0 % of controll
- IC50 ([4]; read-out: IC50 Value ± SEM Primary Fibroblast, 72 h treatment, best-fit values, n = 3): 14.9 ± 0.46 µM
- IC50 ([4]; read-out: Primary fibroblast IC50 values, Mean, mean of independently fitted replicate IC50 values (Supplement S.6), ONC201 value mathematically estimated from inflection point): 15.2 µM
- IC50 ([4]; read-out: Primary fibroblast IC50 values, individual replicates n1-n3, IC50 independently determined for each replicate (Supplement S.6), ONC201 value mathematically estimated from inflection point, viability stayed above 50%): 13.9 µM and 14.9 µM and 16.8 µM
- apoptosis induction [5]: far more efficient in apoptosis induction than ONC201
